The test system of one assay is TOM20 ubiquitylation. Put plainly: TOM20-ubiquitylation assay (western blot of cell lysates). It is filed as cell-based, Human. The conditions noted are these: antimycin A/oligomycin mitophagy trigger, concentration for 1.5-fold gain of TOM20-Ub. An excerpt: TOM20-Ubiquitylation Assay Human cell lines can be challenged with mitochondrial depolarizing agents (ionophores (eg. CCCP, valinomycin), mitochondrial complex inhibitors (oligomycin, antimycin A)) to induce ubiquitylation of TOM20, which is then further promoted in the presence of USP30 inhibitors. TOM20 ubiquitylation is subsequently assessed through western blotting of the cell lysates, with TOM20 ubiquitylation adduct detection possible due to an 8 kDa molecule weight increase for each molecule of ubiquitin added, resulting in laddering of a TOM20 immunoreactive band. TOM20-ubiquitylation levels can be quantified using chemiluminescence densitometry of laddered immunoreactive bands.
In general terms: A western blot detects proteins with antibodies after separation by electrophoresis.

The target of a further assay is USP30 (Homo sapiens (Human), UniProt Q70CQ3). In words: USP30 biochemical IC50 assay (fluorescence polarisation). The conditions noted are these: geomean; USP30 4 nM, 30 min pre-incubation, TAMRA-peptide-ubiquitin FP substrate.
Sequence of USP30 (Q70CQ3 57-517): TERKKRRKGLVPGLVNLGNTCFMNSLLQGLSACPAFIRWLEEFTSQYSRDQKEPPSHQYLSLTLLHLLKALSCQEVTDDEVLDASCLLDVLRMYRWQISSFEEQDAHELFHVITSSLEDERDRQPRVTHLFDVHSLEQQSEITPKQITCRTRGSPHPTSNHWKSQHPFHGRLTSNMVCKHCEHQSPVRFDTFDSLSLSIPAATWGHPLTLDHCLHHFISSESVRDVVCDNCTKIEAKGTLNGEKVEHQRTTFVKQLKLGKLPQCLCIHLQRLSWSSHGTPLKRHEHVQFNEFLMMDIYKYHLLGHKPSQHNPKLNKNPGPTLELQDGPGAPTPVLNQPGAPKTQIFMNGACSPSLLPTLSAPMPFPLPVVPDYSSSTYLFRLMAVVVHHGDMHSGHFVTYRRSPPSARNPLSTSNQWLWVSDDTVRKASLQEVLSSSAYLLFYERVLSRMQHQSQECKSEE

Method for USP30: Dilution plates were prepared at 21 times the final concentration (2100 μM for a final concentration of 100 μM) in 50% DMSO in a 96-well polypropylene V-bottom plate (Greiner #651201). A typical 8-point dilution series would be 100, 30, 10, 3, 1, 0.3, 0.1, 0.03 μM final. Reactions were performed in duplicate in black 384 well plates (small volume, Greiner 784076) in a final reaction volume of 21 μl.
Either lpl of 50% DMSO or diluted compound was added to the plate. USP30 (Boston Biochem #E582) was diluted in reaction buffer (40 mM Tris, pH 7.5, 0.005% Tween 20, 0.5 mg/ml BSA, 5 mM beta-mercaptoethanol) to achieve a final assay concentration of 4 nM, and 10 μl of diluted USP30 was added to the compound. Enzyme and compound were incubated for 30 min at room temp. Reactions were initiated by the addition of 50 nM of TAMRA labelled peptide linked to ubiquitin via an isopeptide bond as fluorescence polarisation substrate. Reactions were read immediately after addition of substrate and following a 2-hour incubation at room temperature. Readings were performed on a Pherastar Plus (BMG Labtech). λ Excitation 540 nm; λ Emission 590 nm.

As to `N#Cc1ccc(C2CC2)c(-c2cnc(C(=O)N(C3CC3)[C@@H]3C[C@@H](Cn4ccnn4)N(C#N)C3)o2)c1` [Example 1, N-((3R,5S)-5-((1H-1,2,3-Triazol-1-yl)methyl)-1-cyanopyrrolidin-3-yl)-5-(5-cyano-2-cyclopropylphenyl)-N-cyclopropyloxazole-2-carboxamide], the “EC1.5x (Geomean, nM); TOM20-Ub 1.5-fold gain” value in the assay with TOM20 ubiquitylation was 17 nM. Besides, the half-inhibitory concentration (IC50) – broadly, the concentration that inhibits the measured activity by half – at USP30 is 5 nM.
For `N#Cc1cccc(-c2cnc(C(=O)N[C@@H]3C[C@@H](Cn4cccn4)N(C#N)C3)o2)c1` [Example 26, N-((3R,5S)-5-((1H-Pyrazol-1-yl)methyl)-1-cyanopyrrolidin-3-yl)-5-(3-cyanophenyl)oxazole-2-carboxamide], the “EC1.5x (Geomean, nM); TOM20-Ub 1.5-fold gain” value in the assay on TOM20 ubiquitylation was 14 nM. The same compound had a half-maximal inhibitory concentration (IC50) on USP30 of 5 nM.
The corresponding values for `N#Cc1cccc(-c2cnc(C(=O)N[C@@H]3C[C@@H](Cn4cncn4)N(C#N)C3)o2)c1` [Example 18, N-((3R,5S)-5-((1H-1,2,4-Triazol-1-yl)methyl)-1-cyanopyrrolidin-3-yl)-5-(3-cyanophenyl)oxazole-2-carboxamide] are 16 nM and 2 nM.
The corresponding values for `N#CN1C[C@H](NC(=O)c2ncc(-c3cccc(Cl)c3)o2)C[C@H]1Cn1ccnn1` [Example 5, N-((3R,5S)-5-((1H-1,2,3-Triazol-1-yl)methyl)-1-cyanopyrrolidin-3-yl)-5-(3-chlorophenyl)oxazole-2-carboxamide] are 9 nM and 4 nM.
For `N#CN1C[C@H](NC(=O)c2ncc(-c3cccc(C(F)(F)F)c3)o2)C[C@H]1Cn1cccn1` [Example 30, N-((3R,5S)-5-((1H-Pyrazol-1-yl)methyl)-1-cyanopyrrolidin-3-yl)(3(trifluoromethyl)phenyl)oxazole-2-carboxamide], in the assay with TOM20 ubiquitylation, the “EC1.5x (Geomean, nM); TOM20-Ub 1.5-fold gain” value was 14 nM. At USP30, this compound returned a concentration for half-maximal inhibition (IC50) of 11 nM.
The corresponding values for `COc1ccccc1-c1cnc(C(=O)N[C@@H]2C[C@@H](Cn3ccnn3)N(C#N)C2)o1` [Example 6, N-((3R,5S)-5-((1H-1,2,3-Triazol-1-yl)methyl)-1-cyanopyrrolidin-3-yl)-5-(2-methoxyphenyl)oxazole-2-carboxamide] are 180 nM and 23 nM.
The corresponding values for `N#Cc1ccc(OC2COC2)c(-c2cnc(C(=O)N(C3CC3)[C@@H]3C[C@@H](Cn4ccnn4)N(C#N)C3)o2)c1` [Example 16, N-((3R,5S)-5-((1H-1,2,3-Triazol-1-yl)methyl)-1-cyanopyrrolidin-3-yl)-5-(5-cyano-2-(oxetan-3-yloxy)phenyl)-N-cyclopropyloxazole-2-carboxamide] are 950 nM and 28 nM.
The corresponding values for `N#Cc1ccc(C2CC2)c(-c2nnc(C(=O)N[C@@H]3C[C@@H](Cn4cccn4)N(C#N)C3)o2)c1` [Example 46, N-((3R,5S)-5-((1H-Pyrazol-1-yl)methyl)-1-cyanopyrrolidin-3-yl)-5-(5-cyano-2-cyclopropylphenyl)-1,3,4-oxadiazole-2-carboxamide] are 19 nM and 9 nM.
For the compound `N#CN1C[C@H](NC(=O)c2ncc(-c3cccc(C4CC4)c3)o2)C[C@H]1Cn1ccnn1` [Example 12, N-((3R,5S)-5-((1H-1,2,3-Triazol-1-yl)methyl)-1-cyanopyrrolidin-3-yl)-5-(3-cyclopropylphenyl)oxazole2-carboxamide], in the assay on TOM20 ubiquitylation, the “EC1.5x (Geomean, nM); TOM20-Ub 1.5-fold gain” value amounted to 25 nM. This compound also showed a half-inhibitory concentration (IC50) at USP30 of 8 nM.
For `N#Cc1ccc(C2CC2)c(-c2nnc(C(=O)N(C3CC3)[C@@H]3C[C@@H](Cn4ccnn4)N(C#N)C3)o2)c1` [Example 2, N-((3R,5S)-5-((1H-1,2,3-Triazol-1-yl)methyl)-1-cyanopyrrolidin-3-yl)-5-(5-cyano-2-cyclopropylphenyl)-N-cyclopropyl-1,3,4-oxadiazole-2-carboxamide], in the assay on TOM20 ubiquitylation, the “EC1.5x (Geomean, nM); TOM20-Ub 1.5-fold gain” value was 15 nM. In addition, at USP30, 11 nM corresponded to half-maximal inhibition (IC50).
The corresponding values for `N#Cc1cccc(-c2cnc(C(=O)N[C@@H]3C[C@@H](Cn4ccnn4)N(C#N)C3)o2)c1` [Example 3, N-((3R,5S)-5-((1H-1,2,3-Triazol-1-yl)methyl)-1-cyanopyrrolidin-3-yl)-5-(3-cyanophenyl)oxazole-2-carboxamide] are 8 nM and 2 nM.
The corresponding values for `N#CN1C[C@H](NC(=O)c2cc(-c3cccc(C(F)(F)F)c3)ccn2)C[C@H]1Cn1ccnn1` [Example 24, N-((3R,5S)-5-((1H-1,2,3-Triazol-1-yl)methyl)-1-cyanopyrrolidin-3-yl)-4-(3-(trifluoromethyl)phenyl)picolinamide] are 620 nM and 9 nM.
The corresponding values for `N#CN1C[C@H](NC(=O)c2nnc(-c3cc(OC(F)(F)F)ccc3C3CC3)o2)C[C@H]1Cn1ccnn1` [Example 13, N-((3R,5S)-5-((1H-1,2,3-Triazol-1-yl)methyl)-1-cyanopyrrolidin-3-yl)-5-(2-cyclopropyl-5-(trifluoromethoxy)phenyl)-1,3,4-oxadiazole-2-carboxamide] are 6 nM and 5 nM.
For `N#CN1C[C@H](NC(=O)c2ncc(-c3ccccc3C3CC3)o2)C[C@H]1Cn1ccnn1` [Example 8, N-((3R,5S)-5-((1H-1,2,3-Triazol-1-yl)methyl)-1-cyanopyrrolidin-3-yl)-5-(2-cyclopropylphenyl)oxazole-2-carboxamide], in the assay on TOM20 ubiquitylation, the “EC1.5x (Geomean, nM); TOM20-Ub 1.5-fold gain” value stood at 41 nM. Besides, on USP30, the IC50 turned out to be 14 nM.
The corresponding values for `N#Cc1cccc(-c2cnc(C(=O)N[C@@H]3C[C@@H](Cn4nccn4)N(C#N)C3)o2)c1` [Example 17, N-((3R,5S)-5-((2H-1,2,3-Triazol-2-yl)methyl)-1-cyanopyrrolidin-3-yl)-5-(3-cyanophenyl)oxazole-2-carboxamide] are 16 nM and 4 nM.

The values are drawn from US20250034122A1, “SUBSTITUTED N-CYANOPYRROLIDINES WITH ACTIVITY AS USP30 INHIBITORS” (MISSION THERAPEUTICS LIMITED, priority 2021, published 2025).
